Experimental data: US20100034779A1, “COMPOSITIONS AND METHODS FOR PRODUCING PLURIPOTENT CELLS FROM ADULT TESTIS” (priority 2005, published 2010)
Entries after “also recorded” stand apart in the source; their conditions may differ.

How the values were obtained:
human SSCs = assay: formation of ESC-like colonies in culture of human SSCs; format: cell-based; conditions: BIO 1 μM; human cultures
Procedure: To optimize the culture condition, DMEM/F12 (1:1; Invitrogen) was applied instead of DMEM as basic medium and several growth factors for long-term culture were added: GDNF (4-50 ng/ml), bFGF (1-10 ng/ml), LIF (10^3 Units/ml), BIO (Calbiochem) and 1×B27 (Invitrogen). Collagenase IV (1 mg/ml in PBS) was used instead of trypsin/EDTA for passaging the cells. […] Tightly packed ESC-like colonies derived from human SSCs after 7 passages (about 1 month; FIG. 3d, e) when cells are cultured in DMEM/F12 medium containing 15% FCS, 2 mM glutamine, 1×NEAA, 50 μM β-ME, 10 ng/ml GDNF, 2 ng/ml bFGF, 10^3 Units/ml LIF and 1×B27.

non-human primate SSCs = assay: formation of ESC-like colonies in culture of non-human primate SSCs; format: cell-based; conditions: BIO 1 μM; non-human primate cultures
[1] = tested on: voltage-gated Na+ and L-type Ca2+ channels; assay: patch-clamp spontaneous action potentials, channel blockade; format: cell-based, mouse; conditions: cadmium 0.5 mmol/L; maGSC-derived cardiomyocytes
Procedure: To determine the functional expression of […] receptors in cardiomyocytes, the effects of β-adrenergic agonist isoproterenol (Iso; 1 μmol/L) on APs were studied. […] This is again in line with data from the ESC-derived cardiomyocytes. […] A further hint for the involvement of fast depolarising Na^+ channels are AP upstroke velocities in the magnitude of 30-50 Vs^−1 for ventricle-, purkinje and atrial-like APs (Table 3).
The membrane potential (Em) of cardiomyocytes was measured at room temperature with ruptured-patch whole cell current clamp (Maier, L. S., et al., Circ Res 2003, 92, 904-11). Fire-polished glass microelectrodes of >10 MΩ resistance when filled with pipette solution were used. Pipette solution contained (in mM) 120 potassium aspartate, 8 KCl, 7 NaCl, 1 MgCl2, 10 HEPES, 5 Mg-ATP, 0.3 Li-GTP (pH 7.2 with KOH). A normal Tyrode's solution with 2 mM CaCl2 served as bath solution. Access resistance was typically ˜20 MΩ after patch rupture. Liquid junction potentials were corrected before recording started. Spontaneous action potentials (APs) were recorded 1 min after patch rupture and followed for about 2 min. Signals were acquired at 1 kHz, filtered with 2.9 and 10 kHz Bessel filters, and recorded with an EPC10 amplifier (HEKA Elektronik, Lambrecht/Pfalz, Germany). […]

gap junctions = assay: fluorescence recovery after photobleaching (FRAP) of calcein AM in cardiac clusters; format: cell-based, mouse; conditions: carbenoxolone 50 μmol/L
Procedure: Functional coupling between cells is confirmed by fluorescence recovery after photobleaching (FRAP) analysis. Briefly, cardiac clusters were loaded with the membrane-permeant fluorescent dye calcein AM (5 μmol/L; Invitrogen) in Ca^2+-free Tyrode solution for 20 min at 37° C. After washing away the excess extracellular fluorescent dye to prevent further loading, the cultures were bathed in Ca^2+-free Tyrode solution and placed on the stage of a Zeiss LSM 5 PASCAL laser-scanning confocal microscope. Using Zeiss software, a rectangular region encompassing 30-50% of a single cell within a cell cluster was selected and its fluorescence was bleached by a high-intensity laser pulse (488 nm, 3-5 s duration). This caused immediate loss of calcein fluorescence emission recorded through a 505 nm long-pass emission filter. Calcein redistribution from adjacent unbleached cells through connexin pores into the bleached region of interest (ROI) was recorded in subsequent confocal images acquired at 30 s intervals for up to 10 min using a low-intensity laser pulse. Fluorescence recovery within ROI was plotted as a function of time and fit to a single exponential function: IROI (t)=A [1−exp (−kt)], where IROI (t) is the ROI fluorescence intensity at time t, A is the amplitude of fluorescence recovery, and k is the rate of recovery. The latter is considered a measure of gap junction permeability. […]

L-type calcium channels = molecular target: T1, L-type calcium channels (Mus musculus, UniProt Q01815); assay: chronotropic effects of cardioactive drugs on beating cardiac clusters; format: cell-based; conditions: beating cardiac clusters at day 5+15; for beating frequency / contraction: 10^−5 mol/L; for chronotropic effect on the beating frequency of maGSC-derived cardiomyocytes: dose dependence
T1 construct: functional L-type calcium channels exist in the maGSC-derived beating cardiomyocytes; endogenous in cells; host or cells: beating cardiac clusters (day 5+15) differentiated from mouse maGSCs
Description: In cardiac muscle, where Ca^2+ influx across the sarcolemma is essential for contraction, the dihydropyridine (DHP)-sensitive L-type calcium channel (DHP receptor) represents the major entry pathway of extracellular Ca^2+. […] The function of L-type calcium channels is examined in beating cardiac clusters at day 5+15 by evaluating chronotropic effects of cardioactive drugs.

T1 sequence (Q01815 whole entry): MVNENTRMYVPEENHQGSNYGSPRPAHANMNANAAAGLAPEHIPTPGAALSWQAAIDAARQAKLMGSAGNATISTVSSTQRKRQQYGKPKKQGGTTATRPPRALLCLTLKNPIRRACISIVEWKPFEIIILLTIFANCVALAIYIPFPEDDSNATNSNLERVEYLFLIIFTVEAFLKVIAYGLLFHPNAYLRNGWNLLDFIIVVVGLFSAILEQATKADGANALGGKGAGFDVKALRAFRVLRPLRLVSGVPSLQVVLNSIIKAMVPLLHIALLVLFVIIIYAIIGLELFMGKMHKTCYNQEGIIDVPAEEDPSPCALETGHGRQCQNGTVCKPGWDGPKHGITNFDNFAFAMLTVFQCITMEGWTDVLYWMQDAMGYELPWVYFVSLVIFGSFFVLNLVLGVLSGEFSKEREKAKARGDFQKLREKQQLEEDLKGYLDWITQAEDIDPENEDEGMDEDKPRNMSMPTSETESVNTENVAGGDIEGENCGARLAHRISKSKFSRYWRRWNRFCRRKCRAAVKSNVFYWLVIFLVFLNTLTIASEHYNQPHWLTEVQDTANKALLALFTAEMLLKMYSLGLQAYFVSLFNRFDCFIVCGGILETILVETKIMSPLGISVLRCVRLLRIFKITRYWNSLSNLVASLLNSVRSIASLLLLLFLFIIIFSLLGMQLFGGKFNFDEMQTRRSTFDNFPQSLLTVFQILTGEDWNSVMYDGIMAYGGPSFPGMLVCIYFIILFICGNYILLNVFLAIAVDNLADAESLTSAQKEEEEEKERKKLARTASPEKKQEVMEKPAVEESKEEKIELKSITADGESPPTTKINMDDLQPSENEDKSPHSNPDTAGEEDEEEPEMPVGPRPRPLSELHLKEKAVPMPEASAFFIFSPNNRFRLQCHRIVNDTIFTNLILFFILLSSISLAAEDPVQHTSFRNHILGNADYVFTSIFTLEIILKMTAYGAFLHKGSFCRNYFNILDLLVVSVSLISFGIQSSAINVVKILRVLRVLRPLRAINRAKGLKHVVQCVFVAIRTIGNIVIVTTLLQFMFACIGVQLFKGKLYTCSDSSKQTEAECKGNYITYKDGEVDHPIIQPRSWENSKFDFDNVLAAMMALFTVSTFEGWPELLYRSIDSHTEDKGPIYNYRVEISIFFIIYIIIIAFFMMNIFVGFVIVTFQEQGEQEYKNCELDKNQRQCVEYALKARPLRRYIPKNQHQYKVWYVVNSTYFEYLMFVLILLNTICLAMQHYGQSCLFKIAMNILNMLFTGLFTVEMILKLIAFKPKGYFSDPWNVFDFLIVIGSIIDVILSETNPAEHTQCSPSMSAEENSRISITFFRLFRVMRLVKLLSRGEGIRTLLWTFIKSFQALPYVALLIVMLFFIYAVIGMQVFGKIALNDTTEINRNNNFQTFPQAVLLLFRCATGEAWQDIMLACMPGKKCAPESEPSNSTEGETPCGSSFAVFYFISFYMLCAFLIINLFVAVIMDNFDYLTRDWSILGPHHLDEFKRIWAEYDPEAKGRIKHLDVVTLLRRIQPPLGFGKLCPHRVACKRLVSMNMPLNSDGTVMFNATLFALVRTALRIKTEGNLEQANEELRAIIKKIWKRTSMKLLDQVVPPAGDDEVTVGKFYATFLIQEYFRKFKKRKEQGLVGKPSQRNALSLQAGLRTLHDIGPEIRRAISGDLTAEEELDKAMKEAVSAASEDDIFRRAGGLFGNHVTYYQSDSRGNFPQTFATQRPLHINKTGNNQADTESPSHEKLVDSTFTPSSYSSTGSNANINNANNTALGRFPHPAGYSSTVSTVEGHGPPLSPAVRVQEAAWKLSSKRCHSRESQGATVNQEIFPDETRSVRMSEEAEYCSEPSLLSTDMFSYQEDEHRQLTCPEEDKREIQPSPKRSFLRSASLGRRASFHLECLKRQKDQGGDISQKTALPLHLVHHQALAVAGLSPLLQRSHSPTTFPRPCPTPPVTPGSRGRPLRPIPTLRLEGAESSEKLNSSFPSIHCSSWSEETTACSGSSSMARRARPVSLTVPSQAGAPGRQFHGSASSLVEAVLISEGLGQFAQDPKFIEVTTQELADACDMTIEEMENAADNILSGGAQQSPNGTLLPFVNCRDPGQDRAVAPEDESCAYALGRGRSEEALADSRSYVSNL
T1 sequence (Q8CC27 whole entry partner): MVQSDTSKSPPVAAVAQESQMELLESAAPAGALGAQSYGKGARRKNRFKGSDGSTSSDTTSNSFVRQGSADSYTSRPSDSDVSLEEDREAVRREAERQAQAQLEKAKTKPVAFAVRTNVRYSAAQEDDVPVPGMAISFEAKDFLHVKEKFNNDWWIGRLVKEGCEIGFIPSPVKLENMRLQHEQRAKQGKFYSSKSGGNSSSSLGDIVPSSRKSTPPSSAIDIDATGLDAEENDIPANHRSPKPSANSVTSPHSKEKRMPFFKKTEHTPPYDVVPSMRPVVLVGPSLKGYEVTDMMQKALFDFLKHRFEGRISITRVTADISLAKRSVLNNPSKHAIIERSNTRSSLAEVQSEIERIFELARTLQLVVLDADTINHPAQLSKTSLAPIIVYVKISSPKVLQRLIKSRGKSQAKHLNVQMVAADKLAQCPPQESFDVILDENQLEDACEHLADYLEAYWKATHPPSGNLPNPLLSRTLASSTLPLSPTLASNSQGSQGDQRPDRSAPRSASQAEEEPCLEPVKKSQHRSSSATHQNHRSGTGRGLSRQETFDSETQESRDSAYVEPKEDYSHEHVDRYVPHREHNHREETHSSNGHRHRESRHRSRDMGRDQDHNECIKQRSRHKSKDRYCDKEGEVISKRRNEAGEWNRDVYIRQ
T1 sequence (O08532 25-956 partner limits assumed): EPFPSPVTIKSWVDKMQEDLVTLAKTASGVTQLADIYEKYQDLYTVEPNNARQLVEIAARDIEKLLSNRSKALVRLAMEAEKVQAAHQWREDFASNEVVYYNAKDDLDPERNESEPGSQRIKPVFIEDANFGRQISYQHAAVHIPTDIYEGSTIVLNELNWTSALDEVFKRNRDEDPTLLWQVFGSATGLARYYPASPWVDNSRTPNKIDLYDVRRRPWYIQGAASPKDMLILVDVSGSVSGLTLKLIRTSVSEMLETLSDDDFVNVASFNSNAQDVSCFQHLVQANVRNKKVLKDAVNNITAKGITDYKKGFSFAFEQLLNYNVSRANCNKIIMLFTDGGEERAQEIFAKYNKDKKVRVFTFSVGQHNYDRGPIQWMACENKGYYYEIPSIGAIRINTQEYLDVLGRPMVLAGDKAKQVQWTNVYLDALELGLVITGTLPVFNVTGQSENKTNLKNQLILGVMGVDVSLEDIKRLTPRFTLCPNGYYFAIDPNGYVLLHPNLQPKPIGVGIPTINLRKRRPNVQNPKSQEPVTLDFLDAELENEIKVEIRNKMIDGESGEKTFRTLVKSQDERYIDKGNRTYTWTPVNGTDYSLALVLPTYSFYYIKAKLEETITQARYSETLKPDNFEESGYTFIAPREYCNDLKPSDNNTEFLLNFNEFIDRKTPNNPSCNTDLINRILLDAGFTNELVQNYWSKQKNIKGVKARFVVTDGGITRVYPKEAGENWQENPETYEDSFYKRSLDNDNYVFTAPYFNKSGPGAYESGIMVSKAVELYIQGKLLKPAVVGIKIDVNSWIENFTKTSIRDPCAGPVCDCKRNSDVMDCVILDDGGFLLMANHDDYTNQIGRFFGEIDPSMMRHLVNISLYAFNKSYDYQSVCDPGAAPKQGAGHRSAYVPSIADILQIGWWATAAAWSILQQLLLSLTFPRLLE
T1 sequence (O08532 957-1103 partner limits assumed): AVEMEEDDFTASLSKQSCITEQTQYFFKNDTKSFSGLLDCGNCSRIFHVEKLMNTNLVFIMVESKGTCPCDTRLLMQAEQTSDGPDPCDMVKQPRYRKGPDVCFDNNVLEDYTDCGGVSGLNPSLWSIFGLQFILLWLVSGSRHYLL

| Molecule | beating frequency / contraction (L-type calcium channels) | chronotropic effect on the beating frequency of maGSC-derived cardiomyocytes (L-type calcium channels) | other results |
| --- | --- | --- | --- |
| O=C1Nc2cc(Br)ccc2/C1=C1/Nc2ccccc2/C1=N\O [BIO, (2′Z, 3′E)-6-Bromoindirubin-3′-oxime] |  |  | formation of ESC-like colonies (human SSCs): optimized the formation of ESC-like colonies; formation of ESC-like colonies (non-human primate SSCs): optimized the formation of ESC-like colonies |
| [Cd] [cadmium] |  |  | spontaneous APs [1]: completely abolished |
| CC1(C)[C@@H](OC(=O)CCC(=O)O)CC[C@]2(C)[C@H]3C(=O)C=C4[C@@H]5C[C@@](C)(C(=O)O)CC[C@]5(C)CC[C@@]4(C)[C@]3(C)CC[C@@H]12 [carbenoxolone, 3β-hydroxy-11-oxoolean-12-en-30-oic acid 3-hemisuccinate] |  |  | fluorescence recovery after photobleaching (gap junctions): disrupted; also recorded: almost completely abolished |
| COc1ccc([C@@H]2Sc3ccccc3N(CCN(C)C)C(=O)[C@@H]2OC(C)=O)cc1 [diltiazem] | almost completely blockes the contraction | dose-dependent negative chronotropic effects |  |
| (S)-BayK 8644 | doubles the beating frequency | dose-dependent positive chronotropic effects |  |
